Source: the supplement of paper PMC10307832

Compound: O=C(NCCCNc1nc(Nc2cccc(NC(=O)N3CCCC3)c2)ncc1I)c1cccs1 [BX 795]
Experiment: relative viability (nuclei count vs DMSO), 5 days (fraction); higher = more cells survive
In short: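 Lung cancer cell lines in 1536-well plates were kept overnight at 37 °C, then pinned with five library-drug doses (not always all listed) spaced by √10 on vehicle-anchored plates. After 5 days without medium change, cells were fixed, permeabilised and Hoechst-stained in one step, imaged at 4×, and nuclei were counted with MetaXpress. Viability is treated-well nuclei divided by vehicle-well nuclei, taken as the median over plates. Plates passed only with control CV below 25% and at least one doubling.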

Cell Line | relative viability (0.04 µM) | relative viability (0.1265 µM) | relative viability (0.4 µM) | relative viability (1.265 µM)
201T | 0.983 | 0.996 | 1.07 | 1.04
A549 | 1.01 | 1.08 | 0.97 | 0.671
A-427 | 1.08 | 0.905 | 0.998 | 0.808
ABC-1 | 0.888 | 0.797 | 0.917 | 0.906
BEN | 0.907 | 1.12 | 0.952 | 1.05
CAL-12T | 0.949 | 0.992 | 0.882 | 0.623
COR-L23 | 1.04 | 1.04 | 1.05 | 0.669
COR-L 105 | 0.985 | 0.868 | 0.776 | 0.661
ChaGo-K-1 | 0.947 | 1.06 | 0.959 | 0.981
EKVX | 0.934 | 0.975 | 0.883 | 0.93
EMC-BAC-2 | 0.978 | 0.843 | 0.951 | 0.633
EPLC-272H | 1.01 | 0.899 | 0.885 | 0.748
H3255 | 0.985 | 1.07 | 1.02 | 0.949
HARA | 0.921 | 0.81 | 0.975 | 0.947
HCC-15 | 0.967 | 1.05 | 0.973 | 0.804
HCC-44 | 0.908 | 0.967 | 1.07 | 1.06
HCC-78 | 1.1 | 1 | 1.01 | 0.933
HCC-366 | 1.02 | 1.02 | 0.944 | 0.945
HCC-827 | 1 | 1.02 | 1.04 | 1.01
HOP-62 | 0.963 | 1.06 | 1.21 | 1
IA-LM | 1.02 | 1.03 | 1.12 | 0.86
LC-2-ad | 1.04 | 0.924 | 0.912 | 0.661
LCLC-97TM1 | 1.11 | 1.02 | 1.1 | 0.716
LCLC-103H | 1.02 | 1.01 | 0.937 | 0.985
LK-2 | 0.998 | 1.02 | 0.863 | 0.929

Cell Line | relative viability (0.04 µM) | relative viability (0.1265 µM) | relative viability (0.4 µM) | relative viability (1.265 µM)
LOU-NH91 | 1.01 | 0.967 | 0.982 | 0.961
LU99A | 0.946 | 0.894 | 0.84 | 0.778
LXF-289 | 0.962 | 1 | 1.02 | 0.9
NCI-H23 | 1.07 | 0.952 | 0.896 | 0.769
NCI-H322M | 1.09 | 0.964 | 1.12 | 1.25
NCI-H358 | 0.955 | 0.905 | 0.76 | 0.513
NCI-H441 | 1.39 | 1.24 | 1.48 | 0.802
NCI-H460 | 0.995 | 1.08 | 0.991 | 0.954
NCI-H520 | 0.99 | 1.04 | 0.869 | 0.733
NCI-H522 | 0.92 | 0.877 | 0.921 | 1.01
NCI-H596 | 1.05 | 1.04 | 1 | 0.933
NCI-H647 | 0.81 | 1.02 | 0.891 | 0.82
NCI-H650 | 0.933 | 1.02 | 0.954 | 0.805
NCI-H661 | 1.09 | 0.994 | 1.03 | 1.04
NCI-H727 | 1.01 | 0.899 | 0.978 | 1
NCI-H838 | 0.892 | 0.993 | 0.79 | 0.614
NCI-H1355 | 1.01 | 1.01 | 1.02 | 0.873
NCI-H1395 | 0.839 | 0.858 | 0.586 | 0.633
NCI-H1437 | 0.978 | 1.05 | 1.03 | 1.01
NCI-H1563 | 1.08 | 0.942 | 1.03 | 0.814
NCI-H1650 | 0.915 | 1.05 | 0.8 | 0.778
NCI-H1651 | 1.04 | 1.04 | 0.993 | 1
NCI-H1666 | 1.06 | 1.03 | 1.01 | 0.925
NCI-H1734 | 1.06 | 1.02 | 0.908 | 0.668
NCI-H1755 | 1.05 | 1.03 | 0.972 | 0.881

Cell Line | relative viability (0.04 µM) | relative viability (0.1265 µM) | relative viability (0.4 µM) | relative viability (1.265 µM)
NCI-H1792 | 0.93 | 0.818 | 1.12 | 0.867
NCI-H1793 | 1.09 | 0.917 | 1.05 | 0.808
NCI-H1915 | 1.03 | 0.974 | 0.955 | 0.903
NCI-H1944 | 1.06 | 0.996 | 1.16 | 0.958
NCI-H1975 | 0.977 | 1.07 | 0.858 | 0.806
NCI-H1993 | 1.05 | 0.983 | 0.926 | 0.893
NCI-H2009 | 0.981 | 0.976 | 0.996 | 0.782
NCI-H2023 | 0.906 | 0.904 | 0.571 | 0.6
NCI-H2085 | 1.01 | 1.03 | 0.981 | 0.97
NCI-H2087 | 1.07 | 1.14 | 1.15 | 0.941
NCI-H2126 | 1.01 | 1.02 | 1.1 | 0.983
NCI-H2170 | 0.955 | 0.951 | 0.958 | 0.942
NCI-H2228 | 1.07 | 1.21 | 1.04 | 0.871
NCI-H2342 | 1.03 | 0.939 | 0.924 | 0.978
NCI-H2347 | 1.14 | 1.01 | 1.28 | 0.935
NCI-H2405 | 1.06 | 0.963 | 0.988 | 0.89
NCI-H3122 | 0.981 | 1.01 | 1.04 | 1.06
PC-3 [JPC-3] | 1.07 | 0.979 | 1.04 | 1
PC-14 | 0.948 | 0.997 | 0.944 | 0.719
RERF-LC-KJ | 1.06 | 0.949 | 1.02 | 0.908
SK-LU-1 | 0.91 | 1.18 | 0.629 | 0.836
SK-MES-1 | 1.06 | 0.979 | 0.932 | 0.761
SW 900 | 0.856 | 0.759 | 1.04 | 0.813
SW 1573 | 0.918 | 0.984 | 1.1 | 0.651
UMC-11 | 0.896 | 0.995 | 0.802 | 0.675
